Experimental data published in the supplement of paper PMC10307832.

Legend:
Assay in all cases: relative viability (nuclei count vs DMSO), 5 days (fraction); higher = more cells survive
PAC-1 + Foretinib = compound: C=CCc1cccc(/C=N/NC(=O)CN2CCN(Cc3ccccc3)CC2)c1O [PAC-1] + COc1cc2c(Oc3ccc(NC(=O)C4(C(=O)Nc5ccc(F)cc5)CC4)cc3F)ccnc2cc1OCCCN1CCOCC1 [Foretinib] (partner 0.25 µM)
In short: (§1)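 Values are medians from duplicate plates. Each reflects relative viability, defined as the nuclei count of treated wells over that of vehicle wells. Lung cancer cell lines in 1536-well plates were pin-tool dosed one day after seeding with one drug alone or with a fixed anchor-drug dose plus five library-drug doses (not always all listed) in √10 steps, then fixed, stained and imaged at 4× after 5 days.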

PAC-1 + OSI-027 = compound: C=CCc1cccc(/C=N/NC(=O)CN2CCN(Cc3ccccc3)CC2)c1O [PAC-1] + COc1cccc2cc(-c3nc([C@H]4CC[C@H](C(=O)O)CC4)n4ncnc(N)c34)[nH]c12 [OSI-027] (partner 0.5 µM)
In short: as §1

PAC-1 + Alpelisib = compound: C=CCc1cccc(/C=N/NC(=O)CN2CCN(Cc3ccccc3)CC2)c1O [PAC-1] + Cc1nc(NC(=O)N2CCC[C@H]2C(N)=O)sc1-c1ccnc(C(C)(C)C(F)(F)F)c1 [Alpelisib] (partner 2 µM)
In short: as §1

PAC-1 + AZD7762 = compound: C=CCc1cccc(/C=N/NC(=O)CN2CCN(Cc3ccccc3)CC2)c1O [PAC-1] + NC(=O)Nc1cc(-c2cccc(F)c2)sc1C(=O)N[C@H]1CCCNC1 [AZD7762] (partner 0.2 µM)
In short: as §1

PAC-1 + Pemetrexed = compound: C=CCc1cccc(/C=N/NC(=O)CN2CCN(Cc3ccccc3)CC2)c1O [PAC-1] + Nc1nc2[nH]cc(CCc3ccc(C(=O)N[C@@H](CCC(=O)O)C(=O)O)cc3)c2c(=O)[nH]1 [Pemetrexed] (partner 0.2 µM)
In short: as §1

Cell Line | relative viability (PAC-1 + Foretinib; first compound 0.02 µM) | relative viability (PAC-1 + Foretinib; first compound 0.06325 µM) | relative viability (PAC-1 + Foretinib; first compound 0.2 µM) | relative viability (PAC-1 + Foretinib; first compound 2 µM) | relative viability (PAC-1 + OSI-027; first compound 0.02 µM) | relative viability (PAC-1 + OSI-027; first compound 0.06325 µM) | relative viability (PAC-1 + OSI-027; first compound 0.2 µM) | relative viability (PAC-1 + OSI-027; first compound 2 µM) | relative viability (PAC-1 + Alpelisib; first compound 0.02 µM) | relative viability (PAC-1 + Alpelisib; first compound 0.06325 µM) | relative viability (PAC-1 + Alpelisib; first compound 0.2 µM) | relative viability (PAC-1 + Alpelisib; first compound 2 µM) | relative viability (PAC-1 + AZD7762; first compound 0.02 µM) | relative viability (PAC-1 + AZD7762; first compound 0.06325 µM) | relative viability (PAC-1 + AZD7762; first compound 0.2 µM) | relative viability (PAC-1 + AZD7762; first compound 2 µM) | relative viability (PAC-1 + Pemetrexed; first compound 0.02 µM) | relative viability (PAC-1 + Pemetrexed; first compound 0.06325 µM) | relative viability (PAC-1 + Pemetrexed; first compound 0.2 µM) | relative viability (PAC-1 + Pemetrexed; first compound 2 µM)
NCI-H650 | 1.08 | 1.07 | 0.992 | 0.988 | 0.47 | 0.515 | 0.468 | 0.535 | 1.09 | 1.23 | 1.23 | 1.17 | 0.945 | 0.943 | 1.02 | 0.951 | 0.893 | 0.931 | 0.968 | 1.03
NCI-H838 | 1.06 | 0.953 | 1.01 | 1.06 | 0.359 | 0.386 | 0.373 | 0.398 | 1.07 | 1.01 | 0.962 | 1.04 | 0.972 | 0.964 | 0.936 | 0.925 | 0.22 | 0.235 | 0.238 | 0.206
NCI-H1355 | 0.921 | 0.983 | 0.936 | 1.04 | 0.403 | 0.436 | 0.404 | 0.438 | 0.861 | 0.809 | 0.753 | 0.822 | 0.634 | 0.721 | 0.795 | 0.785 | 1.01 | 1.06 | 1.01 | 1.11
NCI-H1395 | 0.937 | 1.02 | 0.875 | 0.873 | 0.66 | 0.603 | 0.667 | 0.54 | 1.19 | 1.02 | 1.02 | 1.02 | 0.427 | 0.415 | 0.352 | 0.381 | 0.868 | 0.799 | 0.781 | 0.923
NCI-H1437 | 1.19 | 1.23 | 1.3 | 1.1 | 0.893 | 0.867 | 0.82 | 0.762 | 0.953 | 0.932 | 0.906 | 0.716 | 1.11 | 1.09 | 1.12 | 0.844 | 0.31 | 0.32 | 0.305 | 0.3
NCI-H1651 | 0.796 | 0.72 | 0.735 | 0.917 | 0.766 | 0.744 | 0.64 | 0.612 | 0.917 | 1.12 | 0.848 | 0.867 | 0.44 | 0.358 | 0.447 | 0.467 | 0.596 | 0.538 | 0.525 | 0.712
NCI-H1666 | 0.975 | 0.979 | 0.995 | 0.95 | 0.848 | 0.866 | 0.777 | 0.849 | 0.917 | 0.971 | 1.06 | 0.993 | 0.905 | 0.816 | 0.896 | 0.809 | 0.643 | 0.889 | 0.849 | 0.799
NCI-H1734 | 0.759 | 0.779 | 0.762 | 0.759 | 0.607 | 0.589 | 0.522 | 0.642 | 0.662 | 0.664 | 0.748 | 0.642 | 0.515 | 0.615 | 0.532 | 0.546 | 0.379 | 0.427 | 0.418 | 0.419
NCI-H1755 | 0.948 | 0.976 | 0.948 | 0.949 | 0.717 | 0.722 | 0.601 | 0.72 | 0.925 | 0.918 | 0.865 | 0.826 | 0.45 | 0.45 | 0.426 | 0.415 | 0.442 | 0.43 | 0.448 | 0.441
NCI-H1793 | 0.651 | 0.504 | 0.646 | 0.559 | 0.249 | 0.277 | 0.311 | 0.247 | 0.681 | 0.615 | 0.894 | 0.621 | 0.501 | 0.587 | 0.547 | 0.568 | 0.811 | 0.952 | 0.835 | 0.837
NCI-H1915 | 1.09 | 1.08 | 1.02 | 1.08 | 0.603 | 0.621 | 0.592 | 0.586 | 1.04 | 1.08 | 0.991 | 1.02 | 0.724 | 0.681 | 0.546 | 0.695 | 0.552 | 0.471 | 0.471 | 0.473
NCI-H1944 | 0.882 | 0.802 | 0.783 | 0.891 | 0.362 | 0.439 | 0.456 | 0.423 | 0.78 | 0.849 | 0.813 | 0.752 | 0.428 | 0.542 | 0.502 | 0.516 | 0.595 | 0.65 | 0.623 | 0.627
NCI-H1975 | 0.933 | 0.947 | 1.01 | 0.932 | 0.826 | 0.62 | 0.704 | 0.842 | 0.597 | 0.678 | 0.621 | 0.642 | 0.669 | 0.666 | 0.755 | 0.698 | 0.295 | 0.279 | 0.306 | 0.289
NCI-H1993 | 0.718 | 0.746 | 0.608 | 0.826 | 0.485 | 0.576 | 0.634 | 0.545 | 0.701 | 0.645 | 0.678 | 0.672 | 0.829 | 0.797 | 0.748 | 0.837 | 0.636 | 0.565 | 0.59 | 0.589
NCI-H2085 | 0.815 | 0.932 | 0.998 | 1.07 | 0.755 | 0.713 | 0.66 | 0.754 | 0.949 | 0.944 | 0.921 | 0.916 | 0.994 | 1 | 0.907 | 1.1 | 0.945 | 0.885 | 0.953 | 1.03
